Measured values: PMC8746695, “Zinc-Chelating Compounds as Inhibitors of Human and Bacterial Zinc Metalloproteases” (Molecules, 2021)
Entries after “also recorded” stand apart in the source; their conditions may differ. Where two headings read alike, the source gives them in different places.

Tests used:
[1] = biological target: T1, human MT1-MMP/MMP-14 (catalytic domain) (Homo sapiens, UniProt P50281); experiment: Inhibition of MMP-14, fluorescence quenched peptide substrate McaPLGL(Dpa)AR-NH2; format: biochemical; conditions: for effect of 100 μM compound on MMP-14 activity: pre-incubation 0-45 min; for Ki: substrate McaPLGL(Dpa)AR-NH2 4 µM, 30 min pre-incubation at room temperature, calculated from IC50, read-out: Ki ± s.d. MMP-14
T1 construct: human MT1-MMP/MMP-14 (catalytic domain); purchased Calbiochem (San Diego, CA, USA)
Description: (§1) McaPLGL(Dpa)AR-NH2 was used as a substrate for MMP-9 and MMP-14, while McaRPPGFSAFK(Dnp)-OH was used as substrate for ALN, PLN and TLN. The reaction velocities/initial rates (v) were determined at 37 °C, at an excitation wavelength of 320 nm and an emission wavelength of 405 nm with a slit width of 10 nm using either a Perkin Elmer LS 50 Luminescence spectrometer and the FL WinLab Software Package (Perkin Elmer) or a Clario Star microplate reader (CLARIOstar® BMG LABTECH).
(§2) The test compounds were dissolved in 100% DMSO giving a concentration of 10 mM. A fixed substrate concentration of 4.0 µM in a total volume of 100 µL 0.1 M Hepes pH 7.5, 10 mM CaCl2, 0.005% Brij-35 and 1.0% DMSO, were used in all assays, except for ALN where the substrate concentration was 5.0 µM. The fixed enzyme concentrations were as follows; 0.05 nM MMP-9, 1.0 nM MMP-14, 1.4 nM ALN, 0.5 nM PLN and 0.21 nM TLN. Time-dependent inhibitory experiments without and with 100 μM of testing compounds were performed as follows. Compounds were either pre-incubated with the proteases for 15, 30 and 45 min at room temperature and the enzymatic reaction was started by adding the substrate, or not pre-incubated, i.e., the reaction was started by adding the protease to the mixture of substrate and compound. Control tests without compound present were performed in the same way. The reaction was followed for 30 min at 37 °C.
(§3) Enzymes with and without inhibitor were pre-incubated for 30 min at room temperature, and initial rate assays were performed as described above. Assays were performed using a Clario Star microplate reader (CLARIOstar® BMG LABTECH). The IC50 values were calculated in Graph Pad Prism 5 using Equation (1):(1) vi/v0=1/(1+10^(pIC50−pI)) where vi is the enzyme activity in the presence of inhibitor, v0 the activity in the absence of inhibitor, pI = −log [Inhibitor] in M and pIC50 = −log IC50 in M. All experiments were performed in at least triplicate.

pseudolysin (PLN) = biological target: T2, pseudolysin (PLN) (Pseudomonas aeruginosa, UniProt P14756); experiment: Inhibition of pseudolysin (PLN), substrate McaRPPGFSAFK(Dnp)-OH; format: biochemical; conditions: for effect of 100 μM compound on PLN activity: pre-incubation 0-45 min
T2 construct: purchased Calbiochem (San Diego, CA, USA)
Description: as §1, §2, §3

[2] = cited from earlier work
thermolysin (TLN) = biological target: T3, thermolysin (TLN) (Bacillus thermoproteolyticus, UniProt P00800); experiment: Inhibition of thermolysin (TLN), substrate McaRPPGFSAFK(Dnp)-OH; format: biochemical; conditions: for Ki: substrate McaRPPGFSAFK(Dnp)-OH 4 µM, 30 min pre-incubation at room temperature, calculated from IC50, read-out: Ki ± s.d. TLN; for effect of 100 μM compound on TLN activity: pre-incubation 0-45 min
T3 construct: purchased Calbiochem (San Diego, CA, USA)
Description: as §1, §2, §3

recombinant human MMP-9 = biological target: T4, recombinant human MMP-9 (Homo sapiens, UniProt P14780); experiment: Inhibition of MMP-9, fluorescence quenched peptide substrate McaPLGL(Dpa)AR-NH2; format: biochemical; conditions: for Ki: substrate McaPLGL(Dpa)AR-NH2 4 µM, 30 min pre-incubation at room temperature, calculated from IC50, read-out: Ki ± s.d. MMP-9; for effect of 100 μM compound on MMP-9 activity: pre-incubation 0-45 min
T4 construct: made in house; host or cells: Sf9 insect cells
Description: The expression and purification of recombinant human full-length proMMP-9 (rpMMP-9) from Sf9 insect cells were performed as described previously. The amount of proMMP-9 was estimated spectrophotometrically at 280 nm using ε280 nm = 114.36 mM^−1 cm^−1 [48]. Activation of the recombinant proMMP-9 was performed with APMA (auto-activation) as described previously. The amount of active MMP-9 was determined by active site titration using galardin also described previously.
as §1, §2, §3

aureolysin (ALN) = biological target: T5, aureolysin (ALN) (Staphylococcus aureus, UniProt P81177); experiment: Inhibition of aureolysin (ALN), substrate McaRPPGFSAFK(Dnp)-OH; format: biochemical; conditions: for effect of 100 μM compound on ALN activity: pre-incubation 0-45 min
T5 construct: purchased BioCentrum Ltd. (Kraków, Poland)
Description: as §1, §2, §3

VIM-2 = system: VIM-2; set-up: method as in PMID 32179522; conditions: cited from earlier work
NDM-1 = system: NDM-1; set-up: method as in PMID 32179522; conditions: cited from earlier work
Gram-negative pathogens = system: Gram-negative pathogens; set-up: method as in PMID 32179522; conditions: cited from earlier work
[3] = cited from earlier work; remark: listed apart in the source

T3 sequence (P00800 233-548): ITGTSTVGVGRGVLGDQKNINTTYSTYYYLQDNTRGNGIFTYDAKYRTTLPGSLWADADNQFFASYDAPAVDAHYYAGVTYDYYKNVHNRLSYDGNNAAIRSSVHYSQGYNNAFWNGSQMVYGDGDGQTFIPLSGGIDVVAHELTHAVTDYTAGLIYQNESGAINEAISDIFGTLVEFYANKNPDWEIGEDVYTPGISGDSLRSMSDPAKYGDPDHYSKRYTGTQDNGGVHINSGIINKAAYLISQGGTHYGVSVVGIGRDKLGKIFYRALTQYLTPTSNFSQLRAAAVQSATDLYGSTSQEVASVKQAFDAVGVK
T4 sequence (P14780 107-707 limits assumed): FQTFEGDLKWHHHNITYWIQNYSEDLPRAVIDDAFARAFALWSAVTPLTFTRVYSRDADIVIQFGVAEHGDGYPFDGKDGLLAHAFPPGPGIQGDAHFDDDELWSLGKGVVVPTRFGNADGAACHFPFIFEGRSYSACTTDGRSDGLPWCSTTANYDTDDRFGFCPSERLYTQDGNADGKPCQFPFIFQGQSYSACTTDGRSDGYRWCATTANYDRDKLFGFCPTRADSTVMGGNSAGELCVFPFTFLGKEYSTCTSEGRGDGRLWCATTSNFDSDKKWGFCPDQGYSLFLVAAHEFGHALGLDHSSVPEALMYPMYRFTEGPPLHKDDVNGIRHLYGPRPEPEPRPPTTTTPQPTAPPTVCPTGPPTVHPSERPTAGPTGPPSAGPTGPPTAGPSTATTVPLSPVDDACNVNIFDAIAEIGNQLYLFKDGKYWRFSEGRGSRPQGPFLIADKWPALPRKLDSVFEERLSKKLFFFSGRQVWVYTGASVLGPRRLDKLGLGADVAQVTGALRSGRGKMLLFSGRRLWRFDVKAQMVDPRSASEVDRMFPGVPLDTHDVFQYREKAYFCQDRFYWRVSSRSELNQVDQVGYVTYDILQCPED
T5 sequence (P81177 209-509): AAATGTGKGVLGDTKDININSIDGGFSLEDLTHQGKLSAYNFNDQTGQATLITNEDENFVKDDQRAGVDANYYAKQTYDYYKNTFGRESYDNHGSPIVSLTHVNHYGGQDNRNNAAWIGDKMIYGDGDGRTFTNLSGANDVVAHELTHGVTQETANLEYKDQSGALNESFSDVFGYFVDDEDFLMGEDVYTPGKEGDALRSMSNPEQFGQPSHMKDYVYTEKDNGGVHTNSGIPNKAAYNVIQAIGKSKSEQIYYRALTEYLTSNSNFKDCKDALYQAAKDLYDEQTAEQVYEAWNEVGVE
T2 sequence (P14756 198-498): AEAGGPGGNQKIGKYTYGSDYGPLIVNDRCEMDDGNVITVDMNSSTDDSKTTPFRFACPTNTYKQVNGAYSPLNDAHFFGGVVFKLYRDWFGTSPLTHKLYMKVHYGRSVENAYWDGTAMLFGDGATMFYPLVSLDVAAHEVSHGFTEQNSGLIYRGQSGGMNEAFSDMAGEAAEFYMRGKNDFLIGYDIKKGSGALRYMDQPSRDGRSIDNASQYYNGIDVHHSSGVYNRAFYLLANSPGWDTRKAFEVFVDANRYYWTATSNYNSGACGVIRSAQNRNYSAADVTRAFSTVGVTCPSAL

In the case of `c1ccc(CNCc2ccccn2)nc1` [DPA, di(2-pyridinemethyl)amine, reference compound], the “effect of 100 μM compound on MMP-14 activity” value (from here on “effect … on MMP-14 activity”) [1] is reported as “greatly enhanced”, the Ki (pseudolysin (PLN)) is reported as 4 ± 1 µM and the “effect of 100 μM compound on PLN activity” value (from here on “effect … on PLN activity”) (pseudolysin (PLN)) is reported as “Moderately strong inhibition”. The Kd ([2]; read-out: Kd (zinc-binder)) was ~10 nM.

In the case of `NCCc1ccc(NC(=O)CN(CCN(Cc2ccccn2)Cc2ccccn2)Cc2ccccn2)cc1` [Zn45], the Ki [1] is reported as 2.5 ± 0.2 µM, the Ki (pseudolysin (PLN)) is reported as 2.8 ± 0.9 µM and the Ki (thermolysin (TLN)) is reported as 7 ± 1 µM.

In the case of `COC(=O)c1ccc(CN(Cc2ccccn2)Cc2ccccn2)nc1` [Zn145], the Ki [1] is reported as 1.5 ± 0.1 µM and the Ki (pseudolysin (PLN)) is reported as 12 ± 4 µM.

`O=C(O)c1ccc(CN(Cc2ccccn2)Cc2ccccn2)nc1` [Zn146] gave a Ki [1] of 3.8 ± 0.3 µM, a Ki (recombinant human MMP-9) of 21 ± 5 µM and a Ki (aureolysin (ALN)) of 25 ± 2 µM. The Ki (pseudolysin (PLN)) was 4 ± 1 µM.

For `CN(C[C@H](O)[C@@H](O)[C@H](O)[C@H](O)CO)C(=O)c1ccc(CN(Cc2ccccn2)Cc2ccccn2)nc1` [Zn148], the Ki [1] was 8.6 ± 0.7 µM, the “effect of 100 μM compound on ALN activity” value (shortened to “effect … on ALN activity”) (aureolysin (ALN)) was “no or only a limited effect” and the IC50 (pseudolysin (PLN)) was 6.07 ± 0.08 µM. The Ki (pseudolysin (PLN)) was 5 ± 2 µM, the “effect of 100 μM compound on TLN activity” value (“effect … on TLN activity” below) (thermolysin (TLN)) was “no or only a limited effect” and the Kd ([2]; read-out: Kd (zinc)) was 0.001 nM. The “inactivation of MBL VIM-2” value (VIM-2) was “irreversible inhibitor”, the “inactivation of MBL NDM-1” value (NDM-1) was “irreversible inhibitor” and the “reversal of carbapenem resistance in Gram-negative pathogens” value (from here on “reversal of carbapenem resistance”) (Gram-negative pathogens) was “reverse carbapenem resistance”. For the same compound, the acute toxicity ([3]; female BALB/c mice) was “limited in vivo toxicity” and the acute toxicity ([3]; mouse, in vivo) was “without acute toxicity”.

`CC(N)C(=O)NC(C)C(=O)NCCc1ccc(NC(=O)c2ccc(CN(Cc3ccccn3)Cc3ccccn3)nc2)cc1` (stereo not shown) [Zn155] gave a Ki [1] of 2.4 ± 0.2 µM, a Ki (recombinant human MMP-9) of 26 ± 6 µM and a Ki (aureolysin (ALN)) of 60 ± 6 µM. It also gave a Ki (pseudolysin (PLN)) of 6 ± 2 µM.

Work on `O=C(NCCc1ccc(NC(=O)c2ccc(CN(Cc3ccccn3)Cc3ccccn3)nc2)cc1)c1ccc(CN(Cc2ccccn2)Cc2ccccn2)nc1` [Zn175] yielded a Ki (recombinant human MMP-9) of 6 ± 2 µM, a Ki (aureolysin (ALN)) of 14 ± 1 µM and a Ki (pseudolysin (PLN)) of 7 ± 2 µM.

In the case of `CC(N)C(=O)NC(C)C(=O)N1CCN(C(=O)c2ccc(CN(Cc3ccccn3)Cc3ccccn3)nc2)CC1` (stereo not shown) [Zn177], the Ki [1] is reported as 11.2 ± 0.9 µM, the Ki (recombinant human MMP-9) is reported as 56 ± 14 µM and the Ki (pseudolysin (PLN)) is reported as 11 ± 4 µM.

In the case of `COC(=O)c1ccc(CN(Cc2cccs2)Cc2cccs2)s1` [Zn215], the “effect … on MMP-14 activity” value [1] is reported as “weak inhibition or lack of inhibition” and the “effect … on PLN activity” value (pseudolysin (PLN)) is reported as “weak inhibition or lack of inhibition”.

In the case of `COC(=O)c1ccc(CN(Cc2cccs2)Cc2cccs2)nc1` [Zn216], the “effect … on MMP-14 activity” value [1] is reported as “weak inhibition or lack of inhibition” and the “effect … on PLN activity” value (pseudolysin (PLN)) is reported as “weak inhibition or lack of inhibition”.

For `CN(C[C@H](O)[C@@H](O)[C@H](O)[C@H](O)CO)C(=O)c1ccc(CN(Cc2ccccc2)Cc2ccccc2)nc1` [Zn222], the “effect … on MMP-14 activity” value [1] was “weaker binding than Zn148; also recorded: binding was prevented”, the “effect of 100 μM compound on MMP-9 activity” value (recombinant human MMP-9) was “weaker binding than Zn148” and the “effect … on ALN activity” value (aureolysin (ALN)) was “no effect”. For the same compound, the “effect … on PLN activity” value (pseudolysin (PLN)) was “weaker binding than Zn148”, the “effect … on TLN activity” value (thermolysin (TLN)) was “no effect” and the Kd ([2]; read-out: Kd (zinc)) was 1000 nM. The “inactivation of MBL VIM-2” value (VIM-2) was “did not inactivate”, the “inactivation of MBL NDM-1” value (NDM-1) was “did not inactivate” and the “reversal of carbapenem resistance” value (Gram-negative pathogens) was “lacked the ability to reverse carbapenem resistance”.

In the case of `CN(C[C@H](O)[C@@H](O)[C@H](O)[C@H](O)CO)C(=O)c1ccc(CN(Cc2ccccc2)Cc2ccccn2)nc1` [Zn223], the “effect … on MMP-14 activity” value [1] is reported as “weaker binding than Zn148; also recorded: binding was prevented”, the “effect of 100 μM compound on MMP-9 activity” value (recombinant human MMP-9) is reported as “weaker binding than Zn148” and the “effect … on ALN activity” value (aureolysin (ALN)) is reported as “no effect”. The “effect … on PLN activity” value (pseudolysin (PLN)) was “weaker binding than Zn148”, the “effect … on TLN activity” value (thermolysin (TLN)) was “no effect” and the Kd ([2]; read-out: Kd (zinc)) was 100 nM. For the same compound, the “inactivation of MBL VIM-2” value (VIM-2) was “reduced capability to inactivate”, the “inactivation of MBL NDM-1” value (NDM-1) was “reduced capability to inactivate” and the “reversal of carbapenem resistance” value (Gram-negative pathogens) was “lacked the ability to reverse carbapenem resistance”.

Compound `CC(=O)OC[C@@H](OC(C)=O)[C@@H](OC(C)=O)[C@H](OC(C)=O)[C@H](CN(C)C(=O)c1ccc(CN(Cc2ccccn2)Cc2ccccn2)nc1)OC(C)=O` [Zn224] has a Ki [1] of 4.5 ± 0.4 µM and a Ki (pseudolysin (PLN)) of 13 ± 4 µM.

For `CCN(C[C@H](O)[C@@H](O)[C@H](O)[C@H](O)CO)C(=O)c1ccc(CN(Cc2ccccn2)Cc2ccccn2)nc1` [Zn225], the Ki [1] was 4.5 ± 0.4 µM, the Ki (recombinant human MMP-9) was 28 ± 7 µM and the Ki (pseudolysin (PLN)) was 5 ± 2 µM. It also gave a Ki (thermolysin (TLN)) of 9 ± 2 µM.

Compound `O=C(NCc1ccc(CN(Cc2ccccn2)Cc2ccccn2)nc1)C1OC(O)C(O)C(O)C1O` (stereo not shown) [Zn227] has a Ki [1] of 4.8 ± 0.4 µM, a Ki (recombinant human MMP-9) of 77 ± 19 µM and a Ki (pseudolysin (PLN)) of 9 ± 3 µM. For the same compound, the Ki (thermolysin (TLN)) was 11 ± 2 µM.

Compound `O=C(NC[C@H](O)[C@@H](O)[C@H](O)[C@H](O)CO)c1ccc(CN(Cc2ccccn2)Cc2ccccn2)nc1` [Zn230] has a Ki [1] of 3.5 ± 0.3 µM, a Ki (recombinant human MMP-9) of 22 ± 6 µM and a Ki (aureolysin (ALN)) of 20 ± 2 µM. The Ki (pseudolysin (PLN)) was 1.1 ± 0.3 µM and the Ki (thermolysin (TLN)) was 12 ± 2 µM.

In the case of `O=C(O)c1ccc(CN(CCN(Cc2ccccn2)Cc2ccccn2)Cc2ccc(C(=O)O)cn2)nc1` [Zn239], the Ki [1] is reported as 6.1 ± 0.5 µM, the Ki (recombinant human MMP-9) is reported as 58 ± 14 µM and the Ki (pseudolysin (PLN)) is reported as 5 ± 2 µM. It also gave a Ki (thermolysin (TLN)) of 32 ± 5 µM.

Work on `COC(=O)Cc1ccc(NC(=O)c2ccc(CN(Cc3ccccn3)Cc3ccccn3)nc2)cc1` [Zn244] yielded a Ki [1] of 4 ± 0.3 µM, a Ki (recombinant human MMP-9) of 22 ± 6 µM and an IC50 (pseudolysin (PLN)) of 4.46 ± 0.05 µM. The Ki (pseudolysin (PLN)) was 4 ± 1 µM.
